Patent publication US9907791B2, “Ron inhibitors for use in preventing and treating bone loss” (UNIVERSITY OF UTAH RESEARCH FOUNDATION, priority 2014, dated 2018)

How the values were obtained:
PyMT-MSP tumor cells = test: Intratibial PyMT-MSP tumor-induced osteolysis; assay type: in vivo, mice
Description: All procedures involving mice and experimental protocols were approved by the Institutional Animal Care and Use Committee (IACUC) of the University of Utah. The RonTK−/− mice which reside on the FVB background, were crossed with NOD.SCID mice for an immune-compromised mouse model. As a control, wild-type FVB mice were also crossed with NOD.SCID mice. The STK−/− mice, which are on a C57BL/6 background, were compared to wild-type C57BL/6 mice as controls. Mice for all experiments were 6 to 8 weeks of age. For intratibial injections, 1×10^5 (PyMTor DU4475) or 3×10^5 (MDA-MB-231) tumor cells were resuspended in 10 μL matrigel and injected into the right tibia of anesthetized female FVB (PyMT) or NOD.SCID mice carrying various alleles of RON. Osteolysis was assessed by X-ray radiography. Dissected hindlimbs from mice sacrificed at the final time point in each experiment were placed in the Kodak In-vivo Multispectral Imaging System FX and exposed to X-ray radiography at 35 kV for 100 sec. Excess tumor tissue was removed from the bones prior to X-ray. Osteolytic lesions were quantified using Image J software (NCBI). All images were compared to the contralateral leg as an internal control.
Hindlimb bones were excised from mice at the time of sacrifice and bones were fixed in 10% neutral-buffered formalin, decalcified in Formical-2000 (Decal Corporation, Tallman, N.Y.) for 8 days and embedded in paraffin for hematoxylin and eosin (H & E) or immunohistochemical staining. Osteoclast number was assessed as TRAP^+ multinucleated cells containing 4 or more nuclei and reported as TRAP^+ cells per field. Three sections per mouse and 5 fields per section were used for quantification with fields representing the entire length of the tibia. Tumor proliferation rate was reported as the number of cells which were positive for phospho-H3 staining compared to the number of unstained cells per field expressed as a percent. Three sections per mouse and 5 fields per section were used for quantification with analysis being restricted to within the bone marrow cavity. Immunohistochemical analysis was performed with heat-induced antigen retrieval in sodium-citrate buffer (Dako, Denmark). Primary antibodies used were anti-TRAP at 1:50 (Santa Cruz, sc-30833, Dallas, Tex.), anti-Ki67 at 1:100 (Santa Cruz, sc-12202S, Dallas, Tex.), anti-phosphoH3 at 1:100 (Cell Signaling, #9701, Beverly, Mass.), anti-NFATc1 at 1:50 (Santa Cruz, sc-13033, Dallas, Tex.), and anti-RON at 1:250 (Santa Cruz, sc-322, Dallas, Tex.). Bones from mice lacking RON were used as a negative control. Biotinylated secondary antibody was used with the EnVision^+ system HRP kit (Dako, Denmark) and nuclei counterstained with hematoxylin.
For in vivo experiments, the OSI-296 inhibitor was dissolved in 40% Trappsol with 0.01 M HCl, and mice were treated at a concentration of 200 mg/kg daily by oral gavage. Treatment began either 3 days after tumor cell injection for prophylactic experiments, or 3 weeks after tumor cell injection for therapeutic experiments. ASLAN002 was dissolved in 70% PEG400 with 1×PBS and mice were treated at a concentration of 50 mg/kg daily by oral gavage. muRANK-Fc was given at a concentration of 10 mg/kg every three days by intra-peritoneal injection. For the osteoporosis study, mice were treated beginning on the day after ovary removal. The treatment regimen for OSI-296 was 200 mg/kg every other day by oral gavage. ASLAN002 was administered at 50 mg/kg every other day by oral gavage. Treatment continued until the time of sacrifice at 28 days.

c-Src = test: Western blot of osteoclast lysates, phospho-Src; assay type: cell-based, mice; conditions: WT osteoclasts with MSP
Procedure: (§1) Cells were serum starved (0.5% FBS) for 3 hours prior to lysate collection. Inhibitors were added 1 hour prior to lysis and MSP was added 15 min prior to lysis when indicated. Cells were washed with 1×PBS and harvested in lysis buffer (25 mM Tris-HCl, pH 7.5, 0.42 M NaCl, 1.5 mM MgCl2, 0.5 mM EDTA, 1 mM DTT, 25% sucrose, and 0.1% Triton X-100) plus 100× protease arrest (Bioscience, Bozeman, Mont.) and 100× orthovanadate. Primary antibodies used for immunoblotting include: anti-MSP (Santa Cruz, sc-6090, Dallas, Tex.) at a 1:250 dilution, anti-pan Akt (Cell Signaling, #4691S, Beverly, Mass.) at a 1:1000 dilution, anti-pan Erk (Cell Signaling, #4695, Beverly, Mass.) at a 1:1000 dilution, anti-phospho Akt (Cell Signaling, #9271 L, Beverly, Mass.) at a 1:500 dilution, anti-phospho Erk (Cell Signaling, #4370S, Beverly, Mass.) at a 1:500 dilution, anti-Src (Cell Signaling, #2110, Beverly, Mass.) at a 1:500 dilution, and anti-phospho Src (Y416) (Cell Signaling, #2113, Beverly, Mass.) at a 1:500 dilution. The secondary antibodies used were HRP-conjugated anti-goat IgG (Santa Cruz, Dallas, Tex.) and anti-rabbit IgG (Santa Cruz, Dallas, Tex.). Chemiluminescent signals were detected using Immun-Star HRP (BioRad, Hercules, Calif.).

AKT = test: Western blot of osteoclast lysates, phospho-AKT; assay type: cell-based, mice; conditions: osteoclasts
Procedure: as §1

ERK = test: Western blot of osteoclast lysates, ERK; assay type: cell-based, mice; conditions: osteoclasts
Procedure: as §1

`CCOc1ccn(-c2ccc(F)cc2)c(=O)c1C(=O)Nc1ccc(Oc2ccnc(N)c2Cl)c(F)c1` [ASLAN002] was tested, and the inhibition of osteolysis (PyMT-MSP tumor cells; PyMT-MSP tumors, treatment beginning three days after tumor injection, average) was 6-10 fold, the “PyMT-MSP tumor growth in the bone” value (PyMT-MSP tumor cells; caliper measurements) was “trend in decreased growth, but did not reach statistical significance” and the “MSP-increased Src phosphorylation” value (c-Src) was “blocked”. For the same molecule, the “phosphorylated AKT” value (AKT) was “decrease in phosphorylated AKT” and the ERK activity (ERK) was “no effect”.
